This is an account of results in patent publication US20170209364A1, “Method For Treating The Appearance Of Thinning Hair” (priority 2016, published 2017).

One series has as its system 5-α reductase enzyme. Briefly: 5-α reductase inhibition: [14C]-testosterone metabolism to DHT in cultured cells (TLC/autoradiography). Type of series: cell-based. As to conditions: Finasteride 1 × 10^−5 M (reference).

Protocol for 5-α reductase enzyme: Cells were seeded in a 24-well plate and cultured for 24 hours in culture medium. […] Cells were then treated with assay medium containing [^14C]-testosterone and containing the test compound, the association or the reference and the cells were incubated for 24 hours. The culture supernatants were then collected for testosterone metabolism analysis and a standard MTT reduction assay was performed on the cell layers (cell viability assessment).
All experimental conditions were performed in n=3.
The steroid molecules from supernatants were extracted with a chloroform/methanol mix. The organic phase was collected and the different molecular species (testosterone metabolites) were separated by thin layer chromatography (TLC) and using a solvent system containing dichloromethane, ethyl acetate and methanol.
An autoradiography was performed on the chromatography and the transformed testosterone was estimated by densitometric analysis of the different spots corresponding to testosterone metabolites (Packard Cyclone Phosphorlmager and Fujifilm Multigauge software).
Protocol for in vitro: Cells were seeded in a 24-well plate and cultured for 24 hours in culture medium.
At the end of incubation, the cells were incubated with MTT (tetrazolium salt) reduced in blue formazan crystals by succinate dehydrogenase (mitochondrial enzyme). This transformation is proportional to the enzyme activity. After cell dissociation and formazan crystal solubilization using DMSO, the optical density (OD) of the extracts at 540 nm, proportional to the number of living cells and their metabolic activity, was recorded with a microplate reader (VERSAmax, Molecular Devices). The equation used for measuring cell viability is as follows: viability (%)=(OD sample/OD control)×100.
Dermal papilla cell viability is measured with a standard MTT assay (via ASTM E2526-08(2013)).

Broadly, the viability is a read-out of living cells in per cent, often relative to untreated cells. As for `CC(C)(C)NC(=O)[C@H]1CC[C@H]2[C@@H]3CC[C@H]4NC(=O)C=C[C@]4(C)[C@H]3CC[C@]12C` [Finasteride, finasteride], in the series “in vitro”, the viability at 48 h was 101%. In addition, the “DHT/Testosterone ratio as % of Control” value in the series with 5-α reductase enzyme was determined as 28%.
